Laboratory results reported in PMC5267515, “In Vitro and Clinical Evaluations of the Drug-Drug Interaction Potential of a Metabotropic Glutamate 2/3 Receptor Agonist Prodrug with Intestinal Peptide Transporter 1” (Drug Metabolism and Disposition, 2017).
Entries after “also recorded” stand apart in the source; their conditions may differ. Read-outs that look alike come from different tables or passages of the source. Non-standard residues stand in square brackets, D forms with d. Residues, ends and D or L forms follow the SMILES beside them. Sar = CNCC(=O)O

Key:
PEPT1 [1] = molecular target: T1, PEPT1 (Homo sapiens, UniProt P46059); design: expressed in transfected cells; host or cells: HeLa cells (ATCC), transiently transfected with Fugene 6, pcDNA3.1 vector; method as in Zhang et al. (2004); conditions: Gly-Sar 50 μM; ref Zhang et al. (2004); read-out: IC50 against Gly-Sar; cited from earlier work
T1 sequence (P46059 1-708): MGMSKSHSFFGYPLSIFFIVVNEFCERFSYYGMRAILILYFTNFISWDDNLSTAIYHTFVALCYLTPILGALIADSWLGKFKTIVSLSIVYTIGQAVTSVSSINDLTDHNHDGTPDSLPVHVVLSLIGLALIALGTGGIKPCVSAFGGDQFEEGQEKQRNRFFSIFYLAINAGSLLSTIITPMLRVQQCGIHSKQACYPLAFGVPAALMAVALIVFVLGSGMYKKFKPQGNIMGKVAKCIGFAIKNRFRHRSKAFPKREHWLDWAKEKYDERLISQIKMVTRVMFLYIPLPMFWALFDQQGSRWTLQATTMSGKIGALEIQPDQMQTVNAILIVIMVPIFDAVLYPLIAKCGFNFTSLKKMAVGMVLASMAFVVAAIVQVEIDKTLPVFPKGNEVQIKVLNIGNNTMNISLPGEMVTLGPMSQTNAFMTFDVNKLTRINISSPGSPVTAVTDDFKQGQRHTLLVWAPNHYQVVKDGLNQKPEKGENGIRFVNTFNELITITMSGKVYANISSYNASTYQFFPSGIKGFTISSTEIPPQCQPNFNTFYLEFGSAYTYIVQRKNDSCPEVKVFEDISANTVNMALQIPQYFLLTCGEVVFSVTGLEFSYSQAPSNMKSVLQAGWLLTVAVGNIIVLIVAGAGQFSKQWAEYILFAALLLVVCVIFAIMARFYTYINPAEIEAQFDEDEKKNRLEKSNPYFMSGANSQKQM

PEPT1 [2] = molecular target: T1, PEPT1; test: Inhibition of PEPT1-mediated [14C]LY2140023 uptake in transfected HeLa cells; conditions: for IC50: 10 μM [14C]LY2140023
Method: Briefly, cells were seeded at a density of 65,000 cells/ml in 24-well plates. After achieving 50 to 80% confluency, cells were transfected with SLC15A1, gene for PEPT1 (accession number NM_005073) inserted in pcDNA3.1 or pcDNA3.1 empty vector (Invitrogen) using Fugene 6 (Roche, Indianapolis, IN) following the manufacturer’s protocol.
The solubility of compounds at these concentrations was checked by using a fiber-optic light source.
where [I] is an inhibitor concentration in micromoles. Top is the highest % activity in the absence of inhibitor, and S is the slope factor.

PEPT1 [3] = molecular target: T1, PEPT1; test: System validation: proton- and concentration-dependent uptake of [14C]Gly-Sar in PEPT1 transfected HeLa cells; assay type: in vitro ADME; design: expressed in transfected cells; host or cells: HeLa cells (ATCC), transiently transfected with Fugene 6, pcDNA3.1 vector
Method: (§1) Assessment of both the proton-dependent uptake ([Liang et al., 1995]) and the concentration-dependent uptake of [^14C]Gly-Sar by the transiently transfected HeLa cells was used to validate the in vitro system. For proton-dependent uptake, [^14C]Gly-Sar was measured 24 hour post transfection at either pH 6.0 or 7.5. PEPT1- and empty vector-transfected cells were incubated with [^14C]Gly-Sar (50 µM) for 5 minutes at room temperature. Cells transfected with empty pcDNA3.1 vector were used to measure the passive diffusion of [^14C]Gly-Sar. For concentration-dependent uptake, transfected cells were incubated with [^14C]Gly-Sar at concentrations from 50 to 5000 µM for 3 minutes at room temperature. For both proton- and concentration-dependent experiments, cells were washed three times with ice-cold phosphate-buffered saline after incubation with Gly-Sar to stop uptake and then lysed with 0.3 ml 1% triton X-100 in phosphate-buffered saline for 30 minutes at room temperature. Scintillation counting was conducted to determine radioactivity, and protein levels were determined by the bicinchoninic acid method ([Smith et al., 1985]).

PEPT1 [4] = molecular target: T1, PEPT1; design: expressed in transfected cells; method as in Han, 1999; conditions: CHO cells transfected with PEPT1, ref Han, 1999, cited from earlier work
PEPT1 [5] = molecular target: T1, PEPT1; test: Proton- and time-dependent transport of prodrug and active moiety in PEPT1 transfected HeLa cells; assay type: in vitro ADME; design: expressed in transfected cells; host or cells: HeLa cells (ATCC), transiently transfected with Fugene 6, pcDNA3.1 vector; conditions: 30 μM, pH 6.0 or 7.5, PEPT1 vs empty vector transfected HeLa cells
Method: The PEPT1 mediated [^14C]LY2140023 (30 μM) and [^14C]LY404039 (30 μM) uptake was measured in cells 24 hours post transfection. The time-dependent transport of LY2140023 and LY404039 was conducted using buffers prepared at either pH 6.0 or 7.5 as described above. The cells transfected with empty pcDNA3.1 vector were used to measure the passive diffusion of LY2140023 and LY404039. The cells were incubated for 1, 2.5, 5, 7.5, 10, and 15 minutes at room temperature and were washed, lysed, and contents quantified as described above.

[6] = Clinical drug interaction study (H8Y-MC-HBCF), plasma and urine pharmacokinetics in healthy subjects; conditions: for Vd/F: Vz/F; for Tmax: median (min–max)
Method: For the active moiety, the LLQ was 50 ng/ml and the ULQ was 5000 ng/ml.
Actual sampling times were used in the analyses with the exception of predose times, which were set to 0 hour. Area under the curve (AUC) values were determined using log-linear trapezoid methods.
The fraction of the dose excreted (fe) was also determined. For the active moiety dose, the 0.64 correction factor was used as described previously. […] The parameters were log transformed before analysis. The least squares means (LSM) for each treatment and the 90% confidence intervals (CI) for the difference in means between test and reference treatment groups were estimated from the model and back transformed from the log scale to provide estimates of the geometric means and 90% CIs for the ratio of geometric means. The analysis of tmax was based on a nonparametric method. Medians and range for treatments and the P value computed for comparison of median values using Wilcoxon signed rank test are presented.

MDCK-MDR1 cells = system: MDCK-MDR1 cells; design: method as in data on file, Eli Lilly and Company; conditions: ref data on file, Eli Lilly and Company; cited from earlier work
[7] = substrate: CSCC[C@H](N)C(=O)N[C@@]1(C(=O)O)CS(=O)(=O)[C@H]2[C@H](C(=O)O)[C@H]21; test: Concentration-dependent uptake of [14C]LY2140023 in PEPT1 transfected HeLa cells (kinetic parameters); assay type: in vitro ADME, human
Method: The concentration dependent uptake of [^14C]LY2140023, ranging from 5 up to 149 μM, was determined in PEPT1 transfected HeLa cells with 2- to 3-minute incubation at room temperature. The mean passive diffusion of prodrug at each concentration was obtained in parallel experiments in HeLa cells transfected with pcDNA3.1 empty vector and subtracted from the uptake mediated by PEPT1. The corrected data were fitted by WinNonlin Professional, version 5.0.1 or 5.3 (Certara, L.P., St. Louis, MO). The kinetic parameters of the prodrug mediated by PEPT1 were estimated by utilizing the following equation: [drawing 1] where S is the substrate concentration (μM), Vmax is the maximum uptake rate (pmol/min/mg), and Km is the concentration where uptake reaches a half of Vmax (μM).

[8] = substrate: CN(CC(=O)O)C(=O)CN; test: System validation: proton- and concentration-dependent uptake of [14C]Gly-Sar in PEPT1 transfected HeLa cells; assay type: in vitro ADME, human; conditions: other: 50 μM to 5 mM, pH 6.0
Method: as §1

[9] = IC50 against LY2140023, first of two separate experiments
[10] = IC50 against LY2140023, second of two separate experiments
[11] = Mean IC50 against LY2140023, mean of two separate experiments
[12] = LY2140023 + Valacyclovir vs LY2140023 Alone
[13] = other: experiment 1, 5 to 146 μM LY2140023, PEPT1 transfected HeLa cells, parameter ± S.E.M.
[14] = other: experiment 2, 6.4 to 149 μM LY2140023, PEPT1 transfected HeLa cells, parameter ± S.E.M.

For `NCC(=O)CCC(=O)O` [ALA, 5-aminolevulinic acid], the IC50 (PEPT1 [1]) is listed as 0.78 ± 0.26 mM, the IC50 (PEPT1 [2]; [9]) is listed as 1.77 ± 0.21 mM and the IC50 (PEPT1 [2]; [10]) is listed as 1.56 ± 0.22 mM. The IC50 (PEPT1 [2]; [11]) was 1.67 mM.

In the case of `CC1=C(C(=O)O)N2C(=O)[C@@H](NC(=O)[C@H](N)c3ccc(O)cc3)[C@H]2SC1` [Cefadroxil], the IC50 (PEPT1 [1]) is listed as 1.88 ± 0.35 mM, the IC50 (PEPT1 [2]; [9]) is listed as 4.05 ± 0.44 mM and the IC50 (PEPT1 [2]; [10]) is listed as 5.93 ± 1.47 mM. The IC50 (PEPT1 [2]; [11]) was 4.99 mM.

For `CCOC(=O)[C@H](CCc1ccccc1)N[C@@H](C)C(=O)N1CCC[C@H]1C(=O)O` [Enalapril], the IC50 (PEPT1 [1]) is listed as 2.13 ± 0.36 mM, the IC50 (PEPT1 [2]; [9]) is listed as 11 ± 2.64 mM and the IC50 (PEPT1 [2]; [10]) is listed as 10.3 ± 0.42 mM. It also gave an IC50 (PEPT1 [2]; [11]) of 10.7 mM.

Work on `CN(CC(=O)O)C(=O)CN` [Gly-Sar, glycylsarcosine] (H-Gly-[Sar]-OH) yielded an IC50 (PEPT1 [2]; [9]) of 1.29 ± 0.26 mM, an IC50 (PEPT1 [2]; [10]) of 0.69 ± 0.17 mM and an IC50 (PEPT1 [2]; [11]) of 0.99 mM. For the same molecule, the “transport at pH 6.0 relative to pH 7.5” value (PEPT1 [3]; [14C]Gly-Sar 50 µM, 5 minutes, PEPT1 transfected HeLa cells) was “approximately five”, the passive diffusion rate (PEPT1 [3]; control cells (empty pcDNA3.1 vector)) was 0.0972 µL/min/mg and the “reported Vmax” value (PEPT1 [4]) was 3517 pmol/min/mg. The Km (PEPT1 [4]; read-out: reported Km) was 500 µM.

In the case of `N[C@@H](Cc1ccc(O)c(O)c1)C(=O)O` [L- DOPA, L-DOPA], the IC50 (PEPT1 [1]) is listed as 14.9 ± 2.45 mM, the inhibition at 25000 µM (PEPT1 [2]; HeLa, read-out: inhibition of [14C]LY2140023 uptake) is listed as less than 50% and the IC50 (PEPT1 [2]; [9]) is listed as 25.3 ± 2.57 mM. For the same molecule, the IC50 (PEPT1 [2]; [10]) was 26.5 ± 9.38 mM and the IC50 (PEPT1 [2]; [11]) was 25.9 mM.

With `N[C@@]1(C(=O)O)CS(=O)(=O)[C@H]2[C@H](C(=O)O)[C@H]21` [LY404039] the PEPT1 substrate status (PEPT1 [5]) was “is not a PEPT1 substrate; also recorded: not transported by PEPT1”, the CL/F ([6]; LY2140023 80 mg + valacyclovir 1000 mg coadministered, geometric mean (CV%)) was 20.5 (24) L/hour and the “AUC(0-∞) Ratio Test/Reference” value [6, 12] was 0.94. The “Cmax Ratio Test/Reference” value [6, 12] was 0.92, the “active moiety present at the first sampling time” value ([6]; after administration of the prodrug) was 18 of 21 subjects and the half-life ([6]; human, plasma, oral, 80 mg) was 3.05 h. It also gave an AUC(0-inf) ([6]; human, plasma, oral, 80 mg, AUC(0-∞) LS Geometric Mean, LY2140023 Alone (Reference)) of 2670 ng·h/mL, an AUC(0-inf) ([6]; human, plasma, oral, 80 mg, AUC(0-∞), single 80-mg dose of LY2140023 alone, geometric mean (CV%)) of 2600 ng·h/mL and a Cmax ([6]; human, plasma, oral, 80 mg, Cmax LS Geometric Mean, LY2140023 Alone (Reference)) of 484 ng/mL. The Cmax ([6]; human, plasma, oral, 80 mg, Cmax, single 80-mg dose of LY2140023 alone, geometric mean (CV%)) was 477 ng/mL, the Vd/F ([6]; human, plasma, oral, 80 mg, single 80-mg dose of LY2140023 alone, geometric mean (CV%)) was 86.5 L and the Tmax ([6]; human, plasma, oral, 80 mg, single 80-mg dose of LY2140023 alone) was 4 h. For the same molecule, the AUC(0-inf) ([6]; human, plasma, oral, AUC(0-∞) LS Geometric Mean, LY2140023 + Valacyclovir (Test)) was 2500 ng·h/mL, the AUC(0-inf) ([6]; human, plasma, oral, AUC(0-∞), LY2140023 80 mg + valacyclovir 1000 mg coadministered, geometric mean (CV%)) was 2490 ng·h/mL and the Cmax ([6]; human, plasma, oral, Cmax LS Geometric Mean, LY2140023 + Valacyclovir (Test)) was 447 ng/mL. The Cmax ([6]; human, plasma, oral, Cmax, LY2140023 80 mg + valacyclovir 1000 mg coadministered, geometric mean (CV%)) was 444 ng/mL, the Vd/F ([6]; human, plasma, oral, LY2140023 80 mg + valacyclovir 1000 mg coadministered, geometric mean (CV%)) was 92.2 L and the Tmax ([6]; human, plasma, oral, LY2140023 80 mg + valacyclovir 1000 mg coadministered) was 4 h. For the same molecule, the CL renal ([6]; human, urine and plasma, oral, 80 mg) was 213 mL/min, the CL/F ([6]; single 80-mg dose of LY2140023 alone, geometric mean (CV%)) was 19.7 (16) L/hour and the passive permeability (MDCK-MDR1 cells) was “approximately 1 × 10^−6 cm/s”.

B1: PEPT1 (Homo sapiens) (protein)
chain: MGMSKSHSFFGYPLSIFFIVVNEFCERFSYYGMRAILILYFTNFISWDDNLSTAIYHTFVALCYLTPILGALIADSWLGKFKTIVSLSIVYTIGQAVTSVSSINDLTDHNHDGTPDSLPVHVVLSLIGLALIALGTGGIKPCVSAFGGDQFEEGQEKQRNRFFSIFYLAINAGSLLSTIITPMLRVQQCGIHSKQACYPLAFGVPAALMAVALIVFVLGSGMYKKFKPQGNIMGKVAKCIGFAIKNRFRHRSKAFPKREHWLDWAKEKYDERLISQIKMVTRVMFLYIPLPMFWALFDQQGSRWTLQATTMSGKIGALEIQPDQMQTVNAILIVIMVPIFDAVLYPLIAKCGFNFTSLKKMAVGMVLASMAFVVAAIVQVEIDKTLPVFPKGNEVQIKVLNIGNNTMNISLPGEMVTLGPMSQTNAFMTFDVNKLTRINISSPGSPVTAVTDDFKQGQRHTLLVWAPNHYQVVKDGLNQKPEKGENGIRFVNTFNELITITMSGKVYANISSYNASTYQFFPSGIKGFTISSTEIPPQCQPNFNTFYLEFGSAYTYIVQRKNDSCPEVKVFEDISANTVNMALQIPQYFLLTCGEVVFSVTGLEFSYSQAPSNMKSVLQAGWLLTVAVGNIIVLIVAGAGQFSKQWAEYILFAALLLVVCVIFAIMARFYTYINPAEIEAQFDEDEKKNRLEKSNPYFMSGANSQKQM
notes: expressed in transfected cells; host or cells: HeLa cells (ATCC), transiently transfected with Fugene 6, pcDNA3.1 vector
B1 showed a Km ([7]; other: approximate value over experiments) of 30 µM, a Km [7, 13] of 28.66 ± 5.01 µM and a Vmax [7, 13] of 0.000238 µmol/min/mg. For the same molecule, the Km [7, 14] was 29.98 ± 5.29 µM, the Vmax [7, 14] was 0.000573 µmol/min/mg and the Km [8] was 427.9 µM. The Vmax [8] was 3975.3 pmol/min/mg.
